We go through 4 molecules from publication PMC13492380, “Dissecting Structural and Functional Determinants of Microtubules Stabilization through Guided Chemical Modulation” (Journal of Medicinal Chemistry, 2026).

Like-named read-outs stand apart in the source and are kept apart here.

In assay [1] the test system is A549 cells. The assay is described as follows: MTT cytotoxicity assay, A549. The conditions noted are these: Homo sapiens, read-out: Cytotoxicity IC50 A549. The class given is cell-based. The procedure:
Antiproliferative assays were performed as described.
A general note: Formazan colour is commonly taken as a measure of viable cells.

The subject of assay [2] is Kb-V1 cells (overexpressing PgP). The assay is described as follows: MTT cytotoxicity assay, Kb-V1. The conditions noted are these: for IC50: Homo sapiens, KB-V1, 48 h, read-out: Cytotoxicity IC50 Kb-V1; for R/S (resistant to sensitive ratio): IC50 Kb-V1 / IC50 Kb-3.1.
Protocol: (§1) Antiproliferative assays were performed as described. […] Then, increasing concentrations of drugs were added and incubated for 48 h prior to the reaction with the MTT solution. IC50 values were obtained by fitting the experimental data (absorbance at 570/690 nm) to a four-parameter logistic curve using SigmaPlot 14.5 software package (Systat Software, Inc., San Jose, CA, USA) and IC50 values were expressed as mean ± SEM from three independent experiments, each performed in duplicate.
Assay [3] has as its system HeLaβIII cells (overexpressing βIII tubulin isotype). The assay is described as follows: MTT cytotoxicity assay, HeLaβIII. The conditions noted are these: for IC50: Homo sapiens, 48 h, read-out: Cytotoxicity IC50 HeLaβIII; for R/S (resistant to sensitive ratio): IC50 HeLaβIII / IC50 HeLa.
Protocol: as §1
Assay [4] relates to kinesin-1 light chain KLC1 (anterograde transport) in SH-SY5Y cells. The assay is described as follows: Cy5-KBP kinesin binding probe tracking, live-cell imaging. Type of assay: cell-based, human. The conditions noted are these: for Cy5-KBP Distance, normalized to control / Cy5-KBP Speed, normalized to control: 1 μM PTX or 2.5 μM FTX2, 1a or 1b, mean ± SEM. An excerpt: Building on our ability to chemically modulate MT structure, we next explored how these changes influence signaling patterns involved in MAPs interactions. Given that MTs are key players in intracellular transport – guiding organelles, vesicles and chromosomes via molecular motors like dyneins and kinesins – we assessed the impact of our compounds on transport dynamics in neuroblastoma SH-SY5Y cells. We combined live-cell imaging with previously developed tracking peptides (Figure A): Cy5-DBP, which encompasses the sequence that specifically recognizes Dynein Light Chain LC8 (retrograde transport), and Cy5-KBP, with a sequence that binds to the tetratricopeptide repeat of the kinesin-1 light chain KLC1 (anterograde transport). […] However, this was for a short incubation period (1 to 2.5 h, including imaging time) to avoid mitotic arrest or compromise cell viability. We then assessed particle behavior by measuring mean track displacement and mean track velocity.
Cy5-KBP and Cy5-DBP tracking peptides were synthesized at CIB-Margarita Salas (CSIC), following a published protocol. Briefly, the peptide chains were assembled via solid phase peptide synthesis (SPPS) using fluorenylmethyloxycarbonyl (Fmoc) as N-terminal protecting group and, subsequently labeled with the organic dye cyanine 5 (Cy5) via a maleimide–thiol reaction between the N-terminal cysteine residues of the peptides and the commercially available Cy5-maleimide. The final peptides were purified via reverse phase HPLC, dissolved in DMSO to a final 2.5 mM concentration and stored in small aliquots at −20 °C. SH-SY5Y cells were seeded into μ-Slide 8-wells ibiTreat plates (ibidi, flat polymer coverslip-bottom, tissue culture treated) at a concentration of 35,000 cells/well and incubated for 48 h at 37 °C and 5% CO2. […] After this time, the culture medium was replaced by the drug working solution containing either Cy5-KBP or Cy5-DBP, and the plate was incubated for an additional 15 min at 37 °C and 5% CO2. Then, the culture medium was replaced with drug working solution without labeled peptide and the cells were imaged using a confocal laser scanning microscope Leica TCS SP8 with a 63x oil immersion objective that included a humidified incubation chamber, a CO2 controller and a heating unit. Cy5 dye was excited at 635 nm and the fluorescence emission was collected at 645–690 nm. Images were recorded every 1.793 s for 3 min as 2-layer-z-stacks. For each condition, two to three different fields were imaged in two separate experiments.
Single-peptide trajectories were tracked with the TrackMate plugin from the Fiji package software (https://imagej.net/TrackMate). Particles with an estimated blob diameter of 1–1.5 μm were detected using the Laplacian of Gaussian (LoG) detector and linked with the Linear motion LAP tracker. Only spots that were at a maximum distance of 2 μm were linked. Trajectories with less than 6 spots were discarded since they were probably artifactual, and track mean displacement and track mean velocity were calculated and normalized to control cells. Data were further analyzed with MATLAB to perform a Mean Square Displacement (MSD) analysis to determine the mode of displacement of the peptides followed over time. Briefly, for each trajectory the MSD function was calculated and its log–log representation fitted with a linear function (log(MSD(τ)) = […] x log(τ) + C). MSD curves with an R^2 coefficient <0.8 were removed. The slope (α) of each MSD curve determines the motion type of each particle and particles were classified into: constrained particles (CM) α < 1, Brownian particles (BM) α = 1, and transported particles (TM) α > 1. Two independent experiments were performed using three biological replicates (N = 6). Statistical analyses of normalized track mean displacement and track mean velocity were performed using an unpaired t test with Welch’s correction in GraphPad Prism 8 software. […]

`COc1ccc2c(c1)CC(NC(=O)CCCCCCCC(=O)OC1CC3OCC3(OC(C)=O)C3C(OC(=O)c4ccccc4)C4(O)CC(OC(=O)C(O)C(NC(=O)c5ccccc5)c5ccccc5)C(C)=C(C(OC(C)=O)C(=O)C13C)C4(C)C)CC2` [1b, 7-O-((S)-9″-(7‴-Methoxy-1‴,2‴,3‴,4‴-tetrahydronaphthalen-2‴-yl)amino) −9″-oxononanoyl) Paclitaxel]: the IC50 (as a rule, the point on the concentration scale where inhibition reaches its midpoint) in assay [1] (A549, MTT, 48 h, mean ± SEM) was 220 ± 20 nM. In addition, in assay [2], the IC50 came out at 19000 nM and the “R/S (resistant to sensitive ratio)” value was 127. Also, in assay [3], the IC50 amounted to 720 ± 80 nM and the “R/S (resistant to sensitive ratio)” value is on record as 7. Also, in assay [4], the “Cy5-KBP Distance, normalized to control” value is given as 0.85 ± 0.01 ratio to control and the “Cy5-KBP Speed, normalized to control” value is 0.87 ± 0.01 ratio to control. Also, in assay [4] (2.5 μM), the “reduction in kinesin binding probe velocity” value was approximately 16%.
For the molecule `CC(=O)O[C@H]1C(=O)[C@@]2(C)[C@H]([C@H](OC(=O)c3ccccc3)[C@]3(O)C[C@H](OC(=O)[C@H](O)[C@@H](NC(=O)c4ccccc4)c4ccccc4)C(C)=C1C3(C)C)[C@]1(OC(C)=O)CO[C@@H]1C[C@@H]2O` [PTX, Paclitaxel], the IC50 in assay [1] (A549, MTT, 48 h, mean ± SEM) worked out at 3.1 ± 0.7 nM; in assay [2] it was 2700 ± 600 nM; in assay [3] it was 28.7 ± 0.7 nM.
Take `CC(=O)OC1C(=O)C2(C)C(OC(=O)CCCCC(=O)OC3CCc4ccccc43)CC3OCC3(OC(C)=O)C2C(OC(=O)c2ccccc2)C2(O)CC(OC(=O)C(O)C(NC(=O)c3ccccc3)c3ccccc3)C(C)=C1C2(C)C` (stereo not shown) [1a, 7-O-(6″-O-(2‴,3‴-Dihydroinden-1‴-yl)hexanedioyl) Paclitaxel]: the IC50 in assay [1] (A549, 48 h) amounted to 510 ± 40 nM. In assay [2], the IC50 was more than 40000 nM and the “R/S (resistant to sensitive ratio)” value is reported as more than 142. In addition, in assay [3], the IC50 is 510 ± 80 nM and the “R/S (resistant to sensitive ratio)” value amounted to 3. Besides, in assay [4], the “Cy5-KBP Distance, normalized to control” value was 0.92 ± 0.01 ratio to control and the “Cy5-KBP Speed, normalized to control” value is reported as 0.95 ± 0.01 ratio to control. In addition, the “effect on Cy5-KBP particle tracking” value in assay [4] (2.5 μM) is given as “did not affect particle tracking”.
Take `CC(=O)O[C@H]1C(=O)[C@]2(C)[C@@H](OC(=O)[C@H](C)NC(=O)c3ccc(-c4c5cc(F)c(=O)cc-5oc5cc(O)c(F)cc45)c(C(=O)O)c3)C[C@H]3OC[C@@]3(OC(C)=O)[C@H]2[C@H](OC(=O)c2ccccc2)[C@]2(O)C[C@H](OC(=O)[C@H](O)[C@@H](NC(=O)c3ccccc3)c3ccccc3)C(C)=C1C2(C)C` [FTX2, Flutax2]: in assay [4], the “Cy5-KBP Distance, normalized to control” value is 0.910 ± 0.003 ratio to control and the “Cy5-KBP Speed, normalized to control” value is 0.85 ± 0.01 ratio to control. In addition, in assay [4] (2.5 μM), the “reduction in kinesin binding probe velocity” value is approximately 14%.
